This note sets out measurements from US20200022370A1, “MICROBIOCIDAL OXADIAZOLE DERIVATIVES” (SYNGENTA PARTICIPATIONS AG, priority 2016, published 2020).

One assay concerns Uromyces viciae-fabae. The assay is described as follows: Uromyces viciae-fabae / field bean / leaf disc preventative (faba-bean rust). In kind it is in vivo. The note with it: foliar, 288 h, 100 ppm in the applied formulation, field bean leaf discs, inoculated two hours after application, vs untreated, 12 days after application, read-out: disease control. How it is done: (§1) Leaf disks or leaf segments of various plant species are cut from plants grown in a greenhouse. The cut leaf disks or segments are placed in multiwell plates (24-well format) onto water agar. The leaf disks are sprayed with a test solution before (preventative) or after (curative) inoculation. Compounds to be tested are prepared as DMSO solutions (max. 10 mg/ml) which are diluted to the appropriate concentration with 0.025% Tween20 just before spraying. The inoculated leaf disks or segments are incubated under defined conditions (temperature, relative humidity, light, etc.) according to the respective test system. A single evaluation of disease level is carried out 3 to 14 days after inoculation, depending on the pathosystem. Percent disease control relative to the untreated check leaf disks or segments is then calculated.
Example 5: Fungicidal Activity Against Uromyces viciae-fabael Field Bean/Leaf Disc Preventative (Faba-Bean Rust)
Field bean leaf discs are placed on water agar in multiwell plates (96-well format) and 10 μl of the Formulated test compound diluted in acetone and a spreader pipetted onto the leaf disc. Two hours after application leaf discs are inoculated by spraying a spore suspension on the lower leaf surface. The leaf discs are incubated in a climate cabinet at 22° C. with 18 hour day and 70% relative humidity. The activity of a compound is assessed as percent disease control compared to untreated when an appropriate level of disease damage appears in untreated check leaf disks (12 days after application).
The following compounds at 100 ppm in the applied Formulation give at least 80% disease control in this test when compared to untreated control leaf discs under the same conditions, which show extensive disease development.

Assay [1] relates to Puccinia recondita f. Sp. Tritici. Description: Puccinia recondita f. sp. tritici / wheat / leaf disc preventative (brown rust). In kind it is in vivo. The note with it: foliar, 200 ppm in the applied formulation, wheat leaf segments cv. Kanzler, inoculated 1 day after application, vs untreated, 7 to 9 days after application, read-out: disease control. The method, boiled down: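 Segments of cv. Kanzler wheat on agar received a spray of compound formulation diluted in water and were inoculated with spores one day afterwards. Kept at 19° C and 75% rh under 12 h/12 h light; disease control relative to untreated checks rated at 7–9 days post-application.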

For assay [2] the test system is unchanged. The assay is described as follows: Puccinia recondita f. sp. tritici / wheat / leaf disc curative (brown rust). Type of assay: in vivo. As to conditions: foliar, 200 ppm in the applied formulation, wheat leaf segments cv. Kanzler, compound applied 1 day after inoculation, vs untreated, 6 to 8 days after application, read-out: disease control. How it is done: as §1
Example 2: Fungicidal Activity Against Puccinia recondita f. sp. tritici/Wheat/Leaf Disc Curative (Brown Rust)
Wheat leaf segments cv. Kanzler are placed on agar in multiwell plates (24-well format). The leaf segments are then inoculated with a spore suspension of the fungus. Plates were stored in darkness at 19° C. and 75% relative humidity. The Formulated test compound diluted in water was applied 1 day after inoculation. The leaf segments were incubated at 19° C. and 75% relative humidity under a light regime of 12 hours light/12 hours darkness in a climate cabinet and the activity of a compound was assessed as percent disease control compared to untreated when an appropriate level of disease damage appears in untreated check leaf segments (6 to 8 days after application).
The following compounds at 200 ppm in the applied Formulation give at least 80% disease control in this test when compared to untreated control leaf disks under the same conditions, which show extensive disease development.

In a further assay the test system is Phakopsora pachyrhizi. Description: Phakopsora pachyrhizi / soybean / leaf disc preventative (Asian soybean rust). In kind it is in vivo. The note with it: foliar, 200 ppm in the applied formulation, soybean leaf disks, inoculated one day after application, vs untreated, 12 to 14 days after application, read-out: disease control. The method, boiled down:
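Soybean leaf discs on water agar sprayed with formulated compound diluted in water, then inoculated one day later with spore suspension on the lower surface. Held 24-36 h dark at 20 °C, 75% rh, then 12 h light/day; percent disease control versus untreated scored 12-14 days after application.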

Assay [3] deals with Glomerella lacenarium (Colletotrichum lacenarium). The assay is described as follows: Glomerella lacenarium (Colletotrichum lacenarium) liquid culture / cucumber / preventative (anthracnose). Type of assay: cell-based. The note with it: 20 ppm, liquid culture in PDB, 24° C., inhibition of growth measured photometrically 3 to 4 days after application, vs untreated, read-out: disease control. The method in brief: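 Cryopreserved conidia in potato dextrose broth were added to test compound in a 96-well microtiter plate and incubated at 24 °C. Growth inhibition read photometrically 3–4 days after application, as percent activity versus untreated check.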

Turning to `O=C(Nc1ccc(-c2noc(C(F)(F)F)n2)cc1)C(F)(F)c1ccc(Br)cc1` [Compound 1.40, 2-(4-bromophenyl)-2,2-difluoro-N-[4-[5-(trifluoromethyl)-1,2,4-oxadiazol-3-yl]phenyl]acetamide], the pest or weed control at 100 ppm with Uromyces viciae-fabae was at least 80%.

With `O=C(Nc1ccc(-c2noc(C(F)(F)F)n2)cc1)c1cn(C2CC2)c2cc(Cl)c(F)cc2c1=O` [Compound 1.8, 7-chloro-1-cyclopropyl-6-fluoro-4-oxo-N-[4-[5-(trifluoromethyl)-1,2,4-oxadiazol-3-yl]phenyl]quinoline-3-carboxamide], in the assay on Uromyces viciae-fabae, the pest or weed control at 100 ppm is at least 80%.

Consider `COc1cc(OC)nc(Oc2ncccc2C(=O)Nc2ccc(-c3noc(C(F)(F)F)n3)cc2)n1` [Compound 1.22, 2-(4,6-dimethoxypyrimidin-2-yl)oxy-N-[4-[5-(trifluoromethyl)-1,2,4-oxadiazol-3-yl]phenyl]pyridine-3-carboxamide], for which the pest or weed control at 100 ppm in the assay on Uromyces viciae-fabae was at least 80%.

As for `O=C(Nc1ccc(-c2noc(C(F)(F)F)n2)cc1)c1cccn2ccnc12` [Compound 1.7, N-[4-[5-(trifluoromethyl)-1,2,4-oxadiazol-3-yl]phenyl]imidazo[1,2-a]pyridine-8-carboxamide], the pest or weed control at 100 ppm in the assay with Uromyces viciae-fabae was at least 80%.

Turning to `O=C(NC(C(=O)Nc1ccc(-c2noc(C(F)(F)F)n2)cc1)c1ccccc1)OCc1ccccc1` (centres unmarked) [Compound 1.14, benzyl N-[2-oxo-1-phenyl-2-[4-[5-(trifluoromethyl)-1,2,4-oxadiazol-3-yl]anilino]ethyl] carbamate], the pest or weed control at 100 ppm in the assay with Uromyces viciae-fabae is at least 80%.

`O=C(Nc1ccc(-c2noc(C(F)(F)F)n2)cc1)c1cccc2c1OCCO2` [Compound 1.9, N-[4-[5-(trifluoromethyl)-1,2,4-oxadiazol-3-yl]phenyl]-2,3-dihydro-1,4-benzodioxine-5-carboxamide]: in the assay on Uromyces viciae-fabae, the pest or weed control at 100 ppm is at least 80%.

With `O=C(Nc1ccc(-c2noc(C(F)(F)F)n2)cc1)c1cc(Br)nn1-c1ncccc1Cl` [Compound 1.43, 5-bromo-2-(3-chloro-2-pyridyl)-N-[4-[5-(trifluoromethyl)-1,2,4-oxadiazol-3-yl]phenyl]pyrazole-3-carboxamide], the pest or weed control at 100 ppm with Uromyces viciae-fabae was at least 80%.

For `COc1ccc(Br)cc1C(C)C(=O)Nc1ccc(-c2noc(C(F)(F)F)n2)cc1` (centres unmarked) [Compound 1.24, 2-(5-bromo-2-methoxy-phenyl)-N-[4-[5-(trifluoromethyl)-1,2,4-oxadiazol-3-yl]phenyl] propanamide], the pest or weed control at 100 ppm in the assay with Uromyces viciae-fabae is at least 80%.

Turning to `Cc1sc(Nc2ccccc2)nc1C(=O)Nc1ccc(-c2noc(C(F)(F)F)n2)cc1` [Compound 1.37, 2-anilino-5-methyl-N-[4-[5-(trifluoromethyl)-1,2,4-oxadiazol-3-yl]phenyl]thiazole-4-carboxamide], in the assay with Uromyces viciae-fabae, the pest or weed control at 100 ppm is at least 80%.

As for `Cn1nc(C(=O)Nc2ccc(-c3noc(C(F)(F)F)n3)cc2)c(Cl)c1OC(F)F` [Compound 1.25, 4-chloro-5-(difluoromethoxy)-1-methyl-N-[4-[5-(trifluoromethyl)-1,2,4-oxadiazol-3-yl]phenyl]pyrazole-3-carboxamide], the pest or weed control at 100 ppm with Uromyces viciae-fabae is at least 80%.

For the molecule `CC(C)C(=O)Nc1ccc(-c2noc(C(F)(F)F)n2)cc1` [Compound 1.74, 2-methyl-N-[4-[5-(trifluoromethyl)-1,2,4-oxadiazol-3-yl]phenyl] propanamide], the pest or weed control at 200 ppm (in assay [1]; in assay [2]; in the assay on Phakopsora pachyrhizi) was at least 80% throughout. Besides, the inhibition of growth at 20 ppm in assay [3] is at least 80%.

For the molecule `CN(C(=O)C1CCCO1)c1ccc(-c2noc(C(F)(F)F)n2)cc1` (centres unmarked) [Compound 1.141, N-methyl-N-[4-[5-(trifluoromethyl)-1,2,4-oxadiazol-3-yl]phenyl] tetrahydrofuran-2-carboxamide], the pest or weed control at 200 ppm (in assay [1]; in assay [2]; in the assay on Phakopsora pachyrhizi) was at least 80% each time. Further, the inhibition of growth at 20 ppm in assay [3] was at least 80%.

For the molecule `COC(C)C(=O)N(C)c1ccc(-c2noc(C(F)(F)F)n2)cc1` (centres unmarked) [Compound 1.143, 2-methoxy-N-methyl-N-[4-[5-(trifluoromethyl)-1,2,4-oxadiazol-3-yl]phenyl] propanamide], the pest or weed control at 200 ppm (in assay [1]; in assay [2]; with Phakopsora pachyrhizi) was at least 80% each time. Besides, in assay [3], the inhibition of growth at 20 ppm was at least 80%.

As for `CN(C(=O)C1CC1)c1ccc(-c2noc(C(F)(F)F)n2)cc1` [Compound 1.128, N-methyl-N-[4-[5-(trifluoromethyl)-1,2,4-oxadiazol-3-yl]phenyl]cyclo-propanecarboxamide], the pest or weed control at 200 ppm (in assay [1]; in assay [2]; in the assay with Phakopsora pachyrhizi) was at least 80% each time. The inhibition of growth at 20 ppm in assay [3] was at least 80%.

Consider `CN(C(=O)c1ccccc1)c1ccc(-c2noc(C(F)(F)F)n2)cc1` [Compound 2.20, N-methyl-N-[4-[5-(trifluoromethyl)-1,2,4-oxadiazol-3-yl]phenyl]benzamide], for which the pest or weed control at 200 ppm (in assay [1]; in assay [2]; in the assay with Phakopsora pachyrhizi) was at least 80% in each case. Besides, the inhibition of growth at 20 ppm in assay [3] was at least 80%.

As for `COC(=O)C(C)(C)CC(=O)Nc1ccc(-c2noc(C(F)(F)F)n2)cc1` [Compound 1.73, methyl 2,2-dimethyl-4-oxo-4-[4-[5-(trifluoromethyl)-1,2,4-oxadiazol-3-yl]anilino]butanoate], the pest or weed control at 200 ppm (in assay [1]; in assay [2]; with Phakopsora pachyrhizi) was at least 80% throughout. In addition, in assay [3], the inhibition of growth at 20 ppm was at least 80%.

For `O=C(Nc1ccc(-c2noc(C(F)(F)F)n2)cc1)C1CC1F` (centres unmarked) [Compound 1.111, 2-fluoro-N-[4-[5-(trifluoromethyl)-1,2,4-oxadiazol-3-yl]phenyl]cyclo-propanecarboxamide], the pest or weed control at 200 ppm (in assay [1]; in assay [2]; with Phakopsora pachyrhizi) was at least 80% throughout. Also, the inhibition of growth at 20 ppm in assay [3] is at least 80%.

As to `N#CCC(=O)Nc1ccc(-c2noc(C(F)(F)F)n2)cc1` [Compound 2.13, 2-cyano-N-[4-[5-(trifluoromethyl)-1,2,4-oxadiazol-3-yl]phenyl] acetamide], the pest or weed control at 200 ppm (in assay [1]; in assay [2]; with Phakopsora pachyrhizi) was at least 80% throughout. In addition, the inhibition of growth at 20 ppm in assay [3] is at least 80%.

With `CC1(C(=O)Nc2ccc(-c3noc(C(F)(F)F)n3)cc2)COC1` [Compound 1.102, 3-methyl-N-[4-[5-(trifluoromethyl)-1,2,4-oxadiazol-3-yl]phenyl]oxetane-3-carboxamide], the pest or weed control at 200 ppm (in assay [1]; in assay [2]; in the assay on Phakopsora pachyrhizi) was at least 80% in each case. Also, the inhibition of growth at 20 ppm in assay [3] was at least 80%.

Regarding `CCC(C)C(=O)Nc1ccc(-c2noc(C(F)(F)F)n2)cc1` (centres unmarked) [Compound 1.99, 2-methyl-N-[4-[5-(trifluoromethyl)-1,2,4-oxadiazol-3-yl]phenyl]butanamide], the pest or weed control at 200 ppm (in assay [1]; in assay [2]; in the assay on Phakopsora pachyrhizi) was at least 80% each time. In assay [3], the inhibition of growth at 20 ppm is at least 80%.
